From patent US20220324835A1 (Nurix Therapeutics, Inc., priority 2018, published 2022)

Experiments:
T-cell [1] = assay: IL-2 secretion from T-cells co-stimulated with anti-CD3 and anti-CD28 antibody (Biological Example 2); format: cell-based, human; details: Homo sapiens, T-cell, fold change over baseline, primary human total T-cells, read-out: IL-2 secretion Anti-CD3/Anti-CD28 stimulation; for fold induction at 0.3 µM: 0.3 μM Cbl-b inhibitor; for fold induction at 1 µM: 1 μM Cbl-b inhibitor; for fold induction at 4 µM: 4 μM Cbl-b inhibitor
Method in brief: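 No assay protocol given; T-cells stimulated with anti-CD3 alone or anti-CD3 plus anti-CD28, with or without Cbl-b inhibitor. Activation read as IL-2 secretion or CD25 surface staining, expressed as fold over baseline from uninhibited cells […].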

Cbl-b = Cbl-b (Homo sapiens, UniProt Q13191); assay: Cbl-b activity assay (Cbl-b inhibition assay), TR-FRET of Cbl-b interaction with UbcH5B-Ub; format: biochemical; details: assay buffer with 100 mM NaCl, 60 nM Src kinase; read-out: Cbl-b activity IC50
Method in brief: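 TR-FRET readout of Cbl-b binding to Bodipy-fluorescein N-terminally labeled Ub conjugated to UbcH5B C85K, measured with compound present. After compound incubation, 60 nM Src kinase with 1 mM ATP and 5 mM MgCl2 (final) was added for 1.5 h, then a further 1 h incubation; asterisked values used 50 mM NaCl buffer and 30 nM Src.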

T-cell [2] = assay: CD25 cell surface staining on T-cells stimulated with anti-CD3 antibody alone (Biological Example 2); format: cell-based, human; details: T-cell, fold change over baseline, primary human total T-cells, read-out: CD25 staining Anti-CD3 stimulation; for fold induction at 1 µM: 1 μM Cbl-b inhibitor; for fold induction at 8 µM: 8 μM Cbl-b inhibitor
Cbl-b (residues 36-427) = Cbl-b (residues 36-427) (Homo sapiens, UniProt Q13191); assay: Cbl-b binding assay (SPR, Biacore T200); details: 20° C., 1:1 binding model
Method in brief: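 Affinities derived from global 1:1 steady-state or kinetic fits of double-referenced, solvent-corrected SPR data, 20 °C, NeutrAvidin-capture chip. Compound series (top 100 or 50 μM, 8–10 points) injected 50 s, 90–180 s dissociation. Asterisked values used 50 mM instead of 100 mM NaCl and 30 nM Src kinase.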

Chain of Cbl-b (Q13191 36-427): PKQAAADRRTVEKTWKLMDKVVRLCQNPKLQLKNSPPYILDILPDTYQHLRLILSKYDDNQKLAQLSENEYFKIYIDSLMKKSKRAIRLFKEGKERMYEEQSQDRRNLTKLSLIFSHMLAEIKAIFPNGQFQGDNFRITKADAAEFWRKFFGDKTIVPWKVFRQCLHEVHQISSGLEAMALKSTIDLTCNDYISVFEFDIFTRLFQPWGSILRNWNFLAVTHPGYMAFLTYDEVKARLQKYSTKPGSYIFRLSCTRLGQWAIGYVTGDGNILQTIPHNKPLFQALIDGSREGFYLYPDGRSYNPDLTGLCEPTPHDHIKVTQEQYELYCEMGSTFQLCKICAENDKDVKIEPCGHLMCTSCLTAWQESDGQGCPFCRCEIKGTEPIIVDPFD
Chain of Cbl-b (residues 36-427) (Q13191 36-427): as above

Structure (SMILES)	fold induction at 0.3 µM (T-cell [1])	fold induction at 1 µM (T-cell [1])	fold induction at 4 µM (T-cell [1])	IC50 (Cbl-b)	fold induction at 1 µM (T-cell [2])	fold induction at 8 µM (T-cell [2])	Kd (Cbl-b (residues 36-427))
C[C@H](Cc1nncn1C)c1cccc(NC(=O)c2nc(C(F)(F)F)c[nH]2)c1 [Compound 326, (R)-N-(3-(1-(4-methyl-4H-1,2,4-triazol-3-yl)propan-2-yl)phenyl)-4-(trifluoromethyl)-1H-imidazole-2-carboxamide]	1.01 to 2.5	2.51 to 5	2.51 to 5	0.1 to 0.3 µM	0.801 to 1	> 1	0.1 to 0.3 µM
Cc1ccc(C(=O)Nc2cccc([C@H](C)Sc3nncn3C)c2)nc1C(F)(F)F [Compound 61, (S)-5-methyl-N-(3-(1-((4-methyl-4H-1,2,4-triazol-3-yl)thio)ethyl)phenyl)-6-(trifluoromethyl)picolinamide]	< 1	< 1	1.01 to 2.5	0.1 to 0.3 µM	0.601 to 0.8	> 1	0.1 to 0.3 µM
C[C@H](Cc1nncn1C)c1cccc(N2Cc3c(ccnc3C3CCC3)C2=O)c1 [Compound 258, (R)-4-cyclobutyl-2-(3-(1-(4-methyl-4H-1,2,4-triazol-3-yl)propan-2-yl)phenyl)-2,3-dihydropyrrolo[3,4-c]pyridin-1-one]	1.01 to 2.5	2.51 to 5	5 to 7.5	0.1 to 0.3 µM	> 1	> 1	3 to 10 µM
C[C@H](Cc1nncn1C)c1cccc(NC(=O)c2cc(C(=O)N3C[C@@H](O)[C@H](F)C3)ccn2)c1 [Compound 240, 4-((3R,4R)-3-fluoro-4-hydroxypyrrolidine-1-carbonyl)-N-(3-((K)-1-(4-methyl-4H-1,2,4-triazol-3-yl)propan-2-yl)phenyl)picolinamide]	< 1	1.01 to 2.5	2.51 to 5	0.1 to 0.3 µM	0.601 to 0.8	0.801 to 1	0.1 to 0.3 µM
C[C@H](Cc1nncn1C)c1cccc(NC(=O)c2cc(C(=O)N3CC(O)C(F)(F)C3)ccn2)c1 (stereo partly drawn) [Compound 243, 4-(3,3-difluoro-4-hydroxypyrrolidine-1-carbonyl)-N-[3-[(2R)-1-(4-methyl-4H-1,2,4-triazol-3-yl)propan-2-yl]phenyl]pyridine-2-carboxamide]	< 1	< 1	2.51 to 5	0.301 to 1 µM	0.601 to 0.8	0.801 to 1	> 10 µM
C[C@H](Cc1nncn1C)c1cccc(NC(=O)c2cc(C(=O)N3C[C@@H](O)C[C@H]3C)ccn2)c1 [Compound 224, 4-((2R,4S)-4-hydroxy-2-methylpyrrolidine-1-carbonyl)-N-(3-((R)-1-(4-methyl-4H-1,2,4-triazol-3-yl)propan-2-yl)phenyl)picolinamide]	< 1	< 1	< 1	0.1 to 0.3 µM	< 0.6	< 0.6	0.301 to 1 µM
C[C@H](Cc1nncn1C)c1cccc(NC(=O)c2cccc(C(F)(F)CO)n2)c1 [Compound 188, (R)-6-(1,1-difluoro-2-hydroxyethyl)-N-(3-(1-(4-methyl-4H-1,2,4-triazol-3-yl)propan-2-yl)phenyl)picolinamide]	< 1	< 1	< 1	0.1 to 0.3 µM	< 0.6	< 0.6	0.301 to 1 µM
Cc1cc(C)nc(C(=O)Nc2cccc([C@H](C)Sc3nncn3C)c2)c1 [Compound 56, (S)-4,6-dimethyl-N-(3-(1-((4-methyl-4H-1,2,4-triazol-3-yl)thio)ethyl)phenyl)picolinamide]	2.51 to 5	5 to 7.5	> 7.5	0.301 to 1 µM	< 0.6	0.801 to 1	1 to 3 µM
CCn1cnnc1C[C@@H](C)c1cccc(NC(=O)c2cc(C(=O)N3C[C@@H](O)C[C@H]3C)ccn2)c1 [Compound 251, N-(3-((R)-1-(4-ethyl-4H-1,2,4-triazol-3-yl)propan-2-yl)phenyl)-4-((2R,4S)-4-hydroxy-2-methylpyrrolidine-1-carbonyl)picolinamide]	< 1	< 1	1.01 to 2.5	0.301 to 1 µM	0.601 to 0.8	0.601 to 0.8	1 to 3 µM
C[C@H](Sc1nncn1C)c1cccc(NC(=O)c2cccc(S(C)(=O)=O)n2)c1 [Compound 80, (S)-N-(3-(1-((4-methyl-4H-1,2,4-triazol-3-yl)thio)ethyl)phenyl)-6-(methylsulfonyl)picolinamide]	< 1	1.01 to 2.5	1.01 to 2.5	1 to 3 µM	< 0.6	< 0.6	3 to 10 µM
C[C@H](Sc1nncn1C)c1ccnc(NC(=O)c2cc(Cl)cc(C(F)(F)F)n2)c1 [Compound 105, (S)-4-chloro-N-(4-(1-((4-methyl-4H-1,2,4-triazol-3-yl)thio)ethyl)pyridin-2-yl)-6-(trifluoromethyl)picolinamide]	1.01 to 2.5	1.01 to 2.5	< 1	0.301 to 1 µM	< 0.6	0.601 to 0.8	1 to 3 µM
C[C@H](Sc1nncn1C)c1ccc(F)c(NC(=O)c2cccc(C(F)(F)F)n2)c1 [Compound 95a, (S)-N-(2-fluoro-5-(1-((4-methyl-4H-1,2,4-triazol-3-yl)thio)ethyl)phenyl)-6-(trifluoromethyl)picolinamide]	1.01 to 2.5	1.01 to 2.5	2.51 to 5	0.301 to 1 µM	< 0.6	< 0.6	1 to 3 µM
C[C@H](Cc1nncn1C)c1cccc(NC(=O)c2cc(C(C)(C)O)c(Cl)cn2)c1 [Compound 186, (R)-5-chloro-4-(2-hydroxypropan-2-yl)-N-(3-(1-(4-methyl-4H-1,2,4-triazol-3-yl)propan-2-yl)phenyl)picolinamide]	2.51 to 5	1.01 to 2.5	5 to 7.5	0.301 to 1 µM	< 0.6	< 0.6	0.301 to 1 µM
CNS(=O)(=O)c1cc(C(=O)Nc2cccc([C@H](C)Cc3nncn3C)c2)nc(C(F)(F)F)c1 [Compound 201, (R)-N-(3-(1-(4-methyl-4H-1,2,4-triazol-3-yl)propan-2-yl)phenyl)-4-(N-methylsulfamoyl)-6-(trifluoromethyl)picolinamide]	1.01 to 2.5	1.01 to 2.5	< 1	0.1 to 0.3 µM	0.801 to 1	> 1	0.301 to 1 µM
C[C@H](Sc1nncn1C)c1cccc(NC(=O)c2cc(C(=O)N3CC[C@H](O)C3)ccn2)c1 [Compound 140, 4-[[(3S)-3-hydroxypyrrolidin-1-yl]carbonyl]-N-[3-[(1S)-1-[(4-methyl-4H-1,2,4-triazol-3-yl)sulfanyl]ethyl]phenyl]pyridine-2-carboxamide]	< 1	< 1	< 1	0.1 to 0.3 µM	0.601 to 0.8	0.801 to 1	0.301 to 1 µM
C[C@H](Sc1nncn1C)c1cccc(NC(=O)c2cc(Cl)cc(C(F)(F)F)n2)c1 [Compound 68, (S)-4-chloro-N-(3-(1-((4-methyl-4H-1,2,4-triazol-3-yl)thio)ethyl)phenyl)-6-(trifluoromethyl)picolinamide]	1.01 to 2.5	1.01 to 2.5	1.01 to 2.5	0.1 to 0.3 µM	0.601 to 0.8	0.801 to 1	0.301 to 1 µM
C[C@H](Cc1nncn1C)c1cccc(NC(=O)c2cc(O[C@H]3CC[C@@H](O)C3)ccn2)c1 [Compound 206, 4-((1S,3R)-3-hydroxycyclopentyloxy)-N-(3-((R)-1-(4-methyl-4H-1,2,4-triazol-3-yl)propan-2-yl)phenyl)picolinamide]	1.01 to 2.5	1.01 to 2.5	2.51 to 5	0.301 to 1 µM	0.801 to 1	0.801 to 1	0.301 to 1 µM
